SMILES strings stand for the structures.

One experiment concerns paternal Ube3a-YFP mRNA. In words: Real-time PCR of Ube3a-YFP transcript in cortical neurons. It is filed as cell-based, mouse. As to conditions: 10 μM for 72 h. From the text: Total mRNA was isolated by guanidinium thiocyanate-phenol-chloroform extraction using the Trizol reagent (Invitrogen Inc.). Total mRNAs from samples were converted into cDNA and subjected to real-time PCR (RT-PCR) analyses to quantify Ube3a-YFP transcript levels using oliognucleotide primers against Ube3a (Forward sequence: [NT] (SEQ ID NO:1); reverse sequence: [NT] (SEQ ID NO:2)) and total transcript reads were normalized to Oaz1 (Forward sequence: [NT] (SEQ ID NO:3); reverse sequence: [NT] (SEQ ID NO:4)).
For orientation: In qPCR the cycle at which signal appears reflects the starting amount.

The target of the next experiment is T1, Topoisomerase I (Mus musculus, UniProt Q04750).
T1 construct: immunoblotted with an anti-Topoisomerase I antibody (Santa Cruz) to detect free Topoisomerase I; endogenous in cells; host or cells: DIV7 primary mouse cortical neurons (Ube3a m-/p+ and wild type)
T1 sequence (Q04750 1-767): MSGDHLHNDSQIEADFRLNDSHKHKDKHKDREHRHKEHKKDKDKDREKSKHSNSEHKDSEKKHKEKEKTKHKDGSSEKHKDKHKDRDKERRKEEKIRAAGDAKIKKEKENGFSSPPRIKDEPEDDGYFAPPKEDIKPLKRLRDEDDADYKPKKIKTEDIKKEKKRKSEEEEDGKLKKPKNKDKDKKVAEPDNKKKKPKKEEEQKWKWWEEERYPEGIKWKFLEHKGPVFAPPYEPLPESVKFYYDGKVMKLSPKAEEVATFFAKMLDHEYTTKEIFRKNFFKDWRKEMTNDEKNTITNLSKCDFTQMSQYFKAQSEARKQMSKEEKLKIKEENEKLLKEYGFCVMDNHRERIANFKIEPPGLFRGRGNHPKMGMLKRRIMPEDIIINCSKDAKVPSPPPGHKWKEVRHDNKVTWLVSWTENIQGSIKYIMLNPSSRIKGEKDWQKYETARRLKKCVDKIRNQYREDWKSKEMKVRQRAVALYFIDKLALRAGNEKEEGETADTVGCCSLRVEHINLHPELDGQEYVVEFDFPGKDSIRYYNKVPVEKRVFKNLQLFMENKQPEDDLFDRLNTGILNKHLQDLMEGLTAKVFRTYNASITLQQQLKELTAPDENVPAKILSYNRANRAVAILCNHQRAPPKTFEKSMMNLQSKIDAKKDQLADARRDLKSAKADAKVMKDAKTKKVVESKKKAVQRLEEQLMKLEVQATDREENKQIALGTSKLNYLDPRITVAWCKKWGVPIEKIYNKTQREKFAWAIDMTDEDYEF
The experiment is described as follows: Topoisomerase depletion assay (free TOP1 by Western blot). It counts as cell-based. Conditions: 300 nM, 72 h, cultured neurons. As to the method: Cells were harvested and lysed on ice for 30 min in RIPA buffer (50 mM Tris-HCl, 150 mM NaCl, 1% Triton X-100, 0.5% sodium deoxycholate, 0.1% SDS, pH 7.4) to preserve topoisomerase cleavable complexes. Cell extracts were then centrifuged at 14,000 rpm at 4° C. to pellet insoluble debris. 30 μg of the cell supernatant was diluted in 2×SDS sample buffer and separated on a 7.5% SDS-PAGE gel, transferred to PVDF membrane, and immunoblotted with an anti-Topoisomerase I antibody (Santa Cruz) to detect free Topoisomerase I. An anti-β-Tubulin (Sigma) antibody was used as a loading control.
(In general: A western blot detects proteins with antibodies after separation by electrophoresis.)

Experiment [1] has as its system Ube3a-ATS/Snrpn promoter region. In words: Bisulfite sequencing of the Ube3a-ATS/Snrpn promoter region. It is filed as cell-based, mouse. As to conditions: 300 nM, 72 h, cortical neurons. As to the method:
Bisulfite conversion was performed on 200 ng genomic DNA using the MethylCode kit (Invitrogen). 1 μL of converted DNA was used as template for PCR. A first round of PCR was performed as described in Peery et al. using the W18 (5′-[…]) (SEQ ID NO:5) and W19 (5′-[…]) (SEQ ID NO:6) or W16 (5′-[…]) (SEQ ID NO:7) and W17 (5′-[…]) (SEQ ID NO:8) primer sets^38. A second semi-nested round of PCR was performed using 1 μL of the primary PCR reaction as template. For semi-nested PCR, the W18 primer was used with the nested W19-inside primer (5′-[…]) (SEQ ID NO:9), or the W16 primer was used with the nested W17-inside primer (5′-[…]) (SEQ ID NO:10). Products were separated on an agarose gel and extracted using the Qiaquick gel extraction kit (Qiagen). Purified DNA was ligated into the pGem-T Easy vector (Promega). Individual clones were amplified and sequenced.

In the next experiment the test system is UBE3A protein. The experiment is described as follows: Western blot of endogenous UBE3A protein in Ube3a m-/p+ cortical neurons. It is filed as cell-based, mouse. As to conditions: 300 nM, 72 h. As to the method: Embryonic day 13.5 to 15.5 mice that encode the paternal Ube3a-YFP transgene or Ube3a^m−/p+ mice (i.e., AS model mice) were identified and primary cortical neuronal cultures were obtained and plated in 6 well plates. […] To assess Ube3a-YFP protein levels, 7.5 ug of total protein lysates from Ube3a-YFP neurons were separated by 8% SDS-polyacrylamide gel electrophoresis, proteins were transferred to nitrocellulose membranes and immunoblotting was performed using a rabbit anti-GFP antibody (Novus) and Alexa Fluor 680 goat anti-rabbit IgG (Invitrogen). Ube3a-YFP protein bands were visualized by a LiCOR system and to control for protein loading, Ube3a-YFP protein levels were normalized to actin level detected in each sample. To assess Ube3a protein level, immunoblotting was performed using rabbit anti-Ube3a antibody (Abeam) and Alexa Fluor 680 goat anti-rabbit IgG (Invitrogen).
E13.5-15.5 primary cortical neurons from Ube3a-YFP, Ube3a-deficient, or wild-type mice were plated in 6-well plates. At DIV7, neurons were treated with drug or 0.1% DMSO for 72 h, and then total protein lysates were obtained by lysis buffer (1% Triton X-100, 5 mM EDTA, 0.15M NaCl, 10 mM Tris-HCl, pH 7.5, phosphatase inhibitor cocktails 1, protease inhibitor cocktail). […] To control for protein loading, UBE3A-YFP or UBE3A protein levels were normalized to actin levels detected in each sample.

Consider `CCc1c2c(nc3ccc(OC(=O)N4CCC(N5CCCCC5)CC4)cc13)-c1cc3c(c(=O)n1C2)COC(=O)[C@]3(O)CC` [Irinotecan], for which, in the experiment on paternal Ube3a-YFP mRNA, the “paternal Ube3a-YFP mRNA level (RT-PCR)” value is given as “significantly increased the level of paternal Ube3a-YFP mRNA”.
`CC[C@@]1(O)C(=O)OCc2c1cc1n(c2=O)Cc2cc3c(CN(C)C)c(O)ccc3nc2-1` [Topotecan]: the “amount of free (unbound) TOP1” value on Topoisomerase I is recorded as “significantly reduce the amount of free TOP1”. In experiment [1], the “methylation at the imprinting center” value is recorded as “did not alter methylation at the imprinting center”. Moreover, the “UBE3A protein level in neurons from Ube3a m−/p+ mice” value in the experiment on UBE3A protein is “restored UBE3A protein to wild-type levels”.

These data come from patent US10301630B2, “Methods and compositions for unsilencing imprinted genes” (The University of North Carolina at Chapel Hill, priority 2010, dated 2019).
